From ChEMBL document CHEMBL4428125, “8-Substituted 1,3-dimethyltetrahydropyrazino[2,1-f]purinediones: Water-soluble adenosine receptor antagonists and monoamine oxidase B inhibitors” (Bioorg Med Chem, 2016)
Values after ≈ are worked out from the molar mass of the structure shown. Active and inactive are the calls of the source. No cut-off for these calls is given here.

Tests used:
Adenosine receptor A2b [1] = target: T1, Adenosine receptor A2b (Homo sapiens, UniProt P29275); assay: Displacement of [3H]PSB-603 from human A2B receptor expressed in CHO cell membrane measured after 75 mins by liquid scintillation counting method; type: cell membranes
T1 sequence (P29275 whole entry): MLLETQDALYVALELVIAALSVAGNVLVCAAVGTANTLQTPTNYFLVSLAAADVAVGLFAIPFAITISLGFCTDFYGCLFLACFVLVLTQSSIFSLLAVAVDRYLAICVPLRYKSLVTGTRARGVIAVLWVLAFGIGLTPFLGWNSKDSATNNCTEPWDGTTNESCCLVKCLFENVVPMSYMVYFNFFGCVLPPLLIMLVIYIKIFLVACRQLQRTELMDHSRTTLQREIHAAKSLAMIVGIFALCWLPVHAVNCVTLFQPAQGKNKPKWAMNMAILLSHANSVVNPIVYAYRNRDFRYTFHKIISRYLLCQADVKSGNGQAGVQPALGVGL

[2] = target: T2, Amine oxidase [flavin-containing] B (Homo sapiens, UniProt P27338); assay: Inhibition of recombinant human MAO-B expressed in baculovirus infected BTI insect cells at 10 uM preincubated for 30 mins followed by addition of p-tyramine as substrate measured over 45 mins by Amplex Red MAO assay relative to control; details: 0.75 h
T2 sequence (P27338 whole entry): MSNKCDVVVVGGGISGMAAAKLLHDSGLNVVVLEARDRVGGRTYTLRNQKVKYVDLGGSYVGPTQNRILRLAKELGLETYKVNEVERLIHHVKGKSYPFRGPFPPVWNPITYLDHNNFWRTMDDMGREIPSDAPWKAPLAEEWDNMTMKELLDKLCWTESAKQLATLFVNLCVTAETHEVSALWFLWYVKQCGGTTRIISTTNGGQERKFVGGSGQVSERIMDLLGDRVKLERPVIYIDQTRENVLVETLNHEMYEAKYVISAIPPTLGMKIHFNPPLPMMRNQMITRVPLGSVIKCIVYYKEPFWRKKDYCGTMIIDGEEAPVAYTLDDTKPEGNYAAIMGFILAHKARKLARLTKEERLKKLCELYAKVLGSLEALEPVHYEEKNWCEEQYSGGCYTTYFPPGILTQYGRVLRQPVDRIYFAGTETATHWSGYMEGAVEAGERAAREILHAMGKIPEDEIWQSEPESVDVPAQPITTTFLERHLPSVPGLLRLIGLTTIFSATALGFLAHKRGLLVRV

Adenosine receptor A1 [3] = target: T3, Adenosine receptor A1 (Rattus norvegicus, UniProt P25099); assay: Displacement of [3H]CCPA from rat A1 receptor by liquid scintillation counting method
T3 sequence (P25099 whole entry): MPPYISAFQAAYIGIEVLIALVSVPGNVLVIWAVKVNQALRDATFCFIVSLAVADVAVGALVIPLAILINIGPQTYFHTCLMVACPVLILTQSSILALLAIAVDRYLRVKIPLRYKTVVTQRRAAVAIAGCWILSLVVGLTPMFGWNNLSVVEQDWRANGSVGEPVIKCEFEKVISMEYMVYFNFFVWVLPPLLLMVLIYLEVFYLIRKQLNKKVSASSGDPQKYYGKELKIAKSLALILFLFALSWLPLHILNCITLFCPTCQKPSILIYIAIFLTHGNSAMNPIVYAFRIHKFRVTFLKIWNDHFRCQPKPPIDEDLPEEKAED

[4] = target: T2, Amine oxidase [flavin-containing] B; assay: Inhibition of recombinant human MAO-B expressed in baculovirus infected BTI insect cells preincubated for 30 mins followed by addition of p-tyramine as substrate measured over 45 mins by Amplex Red MAO assay
Adenosine receptor A3 = target: T4, Adenosine receptor A3 (Homo sapiens, UniProt P0DMS8); assay: Displacement of [3H]PSB-11 from human A3 receptor expressed in CHO cell membrane by liquid scintillation counting method relative to control; type: cell membranes
T4 sequence (P0DMS8 whole entry): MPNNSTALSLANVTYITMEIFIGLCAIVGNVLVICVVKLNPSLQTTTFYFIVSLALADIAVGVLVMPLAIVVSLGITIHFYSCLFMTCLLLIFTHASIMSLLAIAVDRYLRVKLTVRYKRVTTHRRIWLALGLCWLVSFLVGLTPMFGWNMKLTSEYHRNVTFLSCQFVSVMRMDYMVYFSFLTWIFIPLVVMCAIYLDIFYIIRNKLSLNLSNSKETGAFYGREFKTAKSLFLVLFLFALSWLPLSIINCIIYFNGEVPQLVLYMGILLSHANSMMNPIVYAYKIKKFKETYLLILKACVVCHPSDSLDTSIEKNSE

[5] = target: T5, Adenosine receptor A3 (Homo sapiens) (UniProt P0DMS8); assay: Displacement of [3H]PSB-11 from human A3 receptor expressed in CHO cell membrane at 10 uM by liquid scintillation counting method relative to control relative to control; type: cell membranes
T5 sequence (whole entry): T4 sequence (P0DMS8 whole entry)

Adenosine receptor A1 [6] = target: T6, Adenosine receptor A1 (Homo sapiens, UniProt P30542); assay: Displacement of [3H]CCPA from human A1 receptor expressed in CHO cell membrane by liquid scintillation counting method; type: cell membranes
T6 sequence (P30542 whole entry): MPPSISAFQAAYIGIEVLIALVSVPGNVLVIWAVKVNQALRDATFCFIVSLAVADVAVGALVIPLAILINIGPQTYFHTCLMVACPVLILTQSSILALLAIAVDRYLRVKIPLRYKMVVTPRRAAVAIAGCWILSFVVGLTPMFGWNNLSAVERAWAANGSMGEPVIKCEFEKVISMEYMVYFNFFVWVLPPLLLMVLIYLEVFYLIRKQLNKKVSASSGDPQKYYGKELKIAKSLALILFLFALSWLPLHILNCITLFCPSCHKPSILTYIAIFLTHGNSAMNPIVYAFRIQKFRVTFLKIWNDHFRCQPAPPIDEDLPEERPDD

[7] = target: T7, Adenosine receptor A2b (Homo sapiens) (UniProt P29275); assay: Displacement of [3H]PSB-603 from human A2B receptor expressed in CHO cell membrane measured after 75 mins by liquid scintillation counting method relative to control; type: cell membranes
T7 sequence (whole entry): T1 sequence (P29275 whole entry)

Adenosine receptor A2a [8] = target: T8, Adenosine receptor A2a (Homo sapiens, UniProt P29274); assay: Displacement of [3H]MSX from human A2A receptor by liquid scintillation counting method
T8 sequence (P29274 whole entry): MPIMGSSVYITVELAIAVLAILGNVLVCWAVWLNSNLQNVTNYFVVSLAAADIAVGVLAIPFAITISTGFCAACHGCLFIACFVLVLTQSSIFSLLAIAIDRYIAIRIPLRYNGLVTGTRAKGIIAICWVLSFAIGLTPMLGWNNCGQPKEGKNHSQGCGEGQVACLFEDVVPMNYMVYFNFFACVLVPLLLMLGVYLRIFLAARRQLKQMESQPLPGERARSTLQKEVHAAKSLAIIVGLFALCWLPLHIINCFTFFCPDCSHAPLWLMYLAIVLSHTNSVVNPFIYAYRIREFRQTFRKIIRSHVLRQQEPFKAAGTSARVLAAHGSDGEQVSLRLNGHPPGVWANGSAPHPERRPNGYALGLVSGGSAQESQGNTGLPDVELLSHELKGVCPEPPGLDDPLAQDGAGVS

Adenosine receptor A1 [9] = target: T3, Adenosine receptor A1; assay: Displacement of [3H]MSX from rat A1 receptor measured after 75 mins by liquid scintillation counting method
Adenosine receptor A2a [10] = target: Adenosine receptor A2a (Rattus norvegicus, UniProt P30543); assay: Displacement of [3H]MSX from A2A receptor in rat brain striatum membranes measured after 30 mins by liquid scintillation counting method; type: cell membranes
Chain of Adenosine receptor A2a (Rattus norvegicus, UniProt P30543) (P30543 whole entry): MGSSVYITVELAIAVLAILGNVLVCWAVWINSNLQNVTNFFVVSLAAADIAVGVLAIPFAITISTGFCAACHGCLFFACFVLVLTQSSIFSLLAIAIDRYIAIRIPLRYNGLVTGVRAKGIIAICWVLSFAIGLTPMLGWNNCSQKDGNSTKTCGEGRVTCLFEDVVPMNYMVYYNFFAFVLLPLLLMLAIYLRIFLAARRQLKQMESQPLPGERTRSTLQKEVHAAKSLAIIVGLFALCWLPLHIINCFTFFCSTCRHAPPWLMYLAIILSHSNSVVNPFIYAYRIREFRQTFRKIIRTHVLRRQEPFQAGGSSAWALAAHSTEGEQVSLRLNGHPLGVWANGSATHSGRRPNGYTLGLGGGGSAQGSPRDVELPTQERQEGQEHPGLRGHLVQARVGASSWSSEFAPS

Adenosine receptor A2b [11] = target: T1, Adenosine receptor A2b; assay: Displacement of [3H]PSB-603 from human A2B receptor expressed in CHO cell membrane; type: cell membranes
[12] = target: T7, Adenosine receptor A2b (Homo sapiens); assay: Displacement of [3H]PSB-603 from human A2B receptor expressed in CHO cell membrane at 1 uM relative to control; type: cell membranes
Adenosine receptor A1 [13] = target: T3, Adenosine receptor A1; assay: Displacement of [3H]CCPA from A1 receptor in rat brain cortex membranes by liquid scintillation counting method; type: cell membranes
[14] = target: T9, Adenosine receptor A1 (Rattus norvegicus) (UniProt P25099); assay: Displacement of [3H]CCPA from A1 receptor in rat brain cortex membranes at 1.5 uM by liquid scintillation counting method; type: cell membranes
T9 sequence (whole entry): T3 sequence (P25099 whole entry)

[15] = target: T5, Adenosine receptor A3 (Homo sapiens); assay: Displacement of [3H]PSB-11 from human A3 receptor expressed in CHO cell membrane at 1 uM by liquid scintillation counting method relative to control relative to control; type: cell membranes
Adenosine receptor A2a [16] = target: T8, Adenosine receptor A2a; assay: Agonist activity at recombinant human A2A receptor expressed in CHO cells assessed as increase in forskolin-induced cAMP level at 1 uM preincubated for 20 mins prior to forskolin-stimulation measure after 5 mins by liquid scintillation counting method; type: functional, cell-based
Adenosine receptor A2a [17] = target: T8, Adenosine receptor A2a; assay: Agonist activity at recombinant human A2A receptor expressed in CHO cells assessed as increase in forskolin-induced cAMP level at 10 uM preincubated for 20 mins prior to forskolin-stimulation measure after 5 mins by liquid scintillation counting method; type: functional, cell-based
[18] = Thermodynamic solubility of the compound at pH 7.4; type: physicochemical; details: buffer, read-out: Therm_solubility
[19] = target: T10, Amine oxidase [flavin-containing] A (Homo sapiens, UniProt P21397); assay: Inhibition of recombinant human MAO-A expressed in baculovirus infected BTI insect cells at 10 uM preincubated for 30 mins followed by addition of p-tyramine as substrate measured over 45 mins by Amplex Red MAO assay relative to control; details: 0.75 h
T10 sequence (P21397 whole entry): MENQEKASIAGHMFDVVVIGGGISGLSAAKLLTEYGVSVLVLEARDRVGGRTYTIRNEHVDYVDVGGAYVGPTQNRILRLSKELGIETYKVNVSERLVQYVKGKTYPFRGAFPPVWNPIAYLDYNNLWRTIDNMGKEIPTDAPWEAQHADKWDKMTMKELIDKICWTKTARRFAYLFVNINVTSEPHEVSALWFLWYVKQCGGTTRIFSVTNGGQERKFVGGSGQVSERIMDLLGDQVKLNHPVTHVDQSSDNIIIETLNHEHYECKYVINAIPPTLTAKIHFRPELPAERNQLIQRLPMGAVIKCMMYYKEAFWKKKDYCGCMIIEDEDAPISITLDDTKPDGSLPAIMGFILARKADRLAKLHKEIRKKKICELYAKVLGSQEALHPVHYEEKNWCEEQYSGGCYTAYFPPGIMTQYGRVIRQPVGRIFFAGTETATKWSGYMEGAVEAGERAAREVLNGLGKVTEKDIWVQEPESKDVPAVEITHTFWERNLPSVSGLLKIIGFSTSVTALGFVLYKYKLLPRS

Adenosine receptor A2a [20] = target: T8, Adenosine receptor A2a; assay: Displacement of [3H]MSX from human A2A receptor measured after 30 mins by liquid scintillation counting method
[21] = target: T11, Adenosine receptor A1 (Homo sapiens) (UniProt P30542); assay: Agonist activity at recombinant human A1 receptor expressed in CHO cells assessed as inhibition of forskolin-induced cAMP accumulation at 10 uM preincubated for 20 mins prior to forskolin-stimulation measure after 5 mins by liquid scintillation counting method; type: functional, cell-based
T11 sequence (whole entry): T6 sequence (P30542 whole entry)

Homo sapiens = species: Homo sapiens; assay: Selectivity ratio, ratio of Ki for human A2A receptor to Ki for human A1 receptor
[22] = target: T11, Adenosine receptor A1 (Homo sapiens); assay: Agonist activity at recombinant human A1 receptor expressed in CHO cells assessed as inhibition of forskolin-induced cAMP accumulation at 1 uM preincubated for 20 mins prior to forskolin-stimulation measure after 5 mins by liquid scintillation counting method; type: functional, cell-based
[23] = target: T10, Amine oxidase [flavin-containing] A; assay: Inhibition of recombinant human MAO-A expressed in baculovirus infected BTI insect cells preincubated for 30 mins followed by addition of p-tyramine as substrate measured over 45 mins by Amplex Red MAO assay
[24] = Thermodynamic solubility of the compound at pH 1; type: physicochemical; details: buffer, read-out: Therm_solubility
[25] = Thermodynamic solubility of the compound at pH 4; type: physicochemical; details: buffer, read-out: Therm_solubility

For `Cn1c(=O)c2c(nc3n2CCN(Cc2ccccc2)C3)n(C)c1=O`, the Ki (Adenosine receptor A2b [1]) was over 1000 nM, the inhibition at 10 µM [2] was 36% and the Ki (Adenosine receptor A1 [3]) was 79.3 nM. It also gave an IC50 [4] of over 10000 nM, a Ki (Adenosine receptor A3) of over 10000 nM and an Activity [5] of 21%. It also gave a Ki (Adenosine receptor A1 [6]) of 265 nM, an Activity [7] of 15% and a Ki (Adenosine receptor A2a [8]) of 1060 nM. The Ki (Adenosine receptor A1 [9]) was 598 nM.

`Cn1c(=O)c2c(nc3n2CCN(c2ccc(Br)cc2)C3)n(C)c1=O` gave a Ki (Adenosine receptor A2a [10]) of 3900 nM, an IC50 [4] of 132 nM and a Ki (Adenosine receptor A3) of over 1000 nM. The Ki (Adenosine receptor A2b [11]) was over 1000 nM, the Activity [12] was 11% and the Ki (Adenosine receptor A1 [13]) was over 1500 nM. It also gave an Activity [14] of 15% and an Activity [15] of 2%.

For `Cn1c(=O)c2c(nc3n2CCN(CCCc2ccc(Cl)cc2)C3)n(C)c1=O`, the inhibition at 10 µM [2] was 44%, the Ki (Adenosine receptor A2a [10]) was 316 nM and the IC50 [4] was over 10000 nM. The Ki (Adenosine receptor A3) was over 10000 nM, the Activity [5] was 34% and the Activity (Adenosine receptor A2a [16]) was “inactive”. It also gave a Ki (Adenosine receptor A1 [6]) of 65.5 nM, a Ki (Adenosine receptor A2b [11]) of over 1000 nM and an Activity [12] of 7%. For the same molecule, the Activity (Adenosine receptor A2a [17]) was “inactive”, the solubility thermodynamic [18] was 4 µg/mL (≈ 10.3 µM) and the inhibition at 10 µM [19] was 12%. For the same molecule, the Ki (Adenosine receptor A1 [13]) was 352 nM, the Ki (Adenosine receptor A2a [20]) was 230 nM and the Activity [21] was “inactive”. The Ratio Ki (Homo sapiens) was 4, the Activity [22] was “inactive” and the IC50 [23] was over 10000 nM.

For `Cn1c(=O)c2c(nc3n2CCN(Cc2csc(-c4ccc(C(F)(F)F)cc4)n2)C3)n(C)c1=O`, the inhibition at 10 µM [2] was 54%, the Ki (Adenosine receptor A2a [10]) was 355 nM and the IC50 [4] was 10000 nM. For the same molecule, the Ki (Adenosine receptor A3) was 7490 nM, the Activity (Adenosine receptor A2a [16]) was “inactive” and the Ki (Adenosine receptor A1 [6]) was 236 nM. For the same molecule, the Ki (Adenosine receptor A2b [11]) was over 1000 nM, the Activity [12] was 25% and the solubility thermodynamic [24] was 200 µg/mL (≈ 420 µM). The Activity (Adenosine receptor A2a [17]) was “inactive”, the solubility thermodynamic [18] was under 0.5 µg/mL and the Ki (Adenosine receptor A1 [13]) was 157 nM. The Ki (Adenosine receptor A2a [20]) was 217 nM, the solubility thermodynamic [25] was under 0.5 µg/mL and the Activity [21] was “inactive”. For the same molecule, the Activity [22] was “inactive”.
